In brackets after ≈: the same amount, converted by molar mass.
What was measured:
P. aerug. (2) = experiment: Susceptibility testing (MIC, CLSI microdilution); assay type: cell-based, Pseudomonas aeruginosa; conditions: 20 h at 35° C., in µg/mL (unit assumed)
Protocol: (§1) Compounds were tested following the microdilution method of CLSI (Clinical and Laboratory Standards Institute. Methods for dilution antimicrobial susceptibility tests for bacteria that grow aerobically; Approved standard—sixth edition. CLSI document M7-A5, CLSI, Wayne, Pa. 2003). Assays were performed in sterile plastic 96-well microtiter trays with round bottom wells (Greiner).
(§2) Stock solutions of test compounds and control antibiotics were prepared at 10 mg/ml in DMSO. Serial 2-fold dilutions of each drug were performed in a microtiter plate across each row using DMSO as solvent at 100-fold the desired final concentration. Wells in columns #1-11 contain drug and column #12 was kept as a growth control for the organism with no drug. Each well in the mother plate was diluted with sterile deionized water and DMSO, mixed, and volumes of 10 μl distributed to each well in the resulting assay plates.
(§3) Stock cultures were prepared using the Microbank™ method (Pro-Lab Diagnostics) and stored at −80° C. To propagate each strain, one bead was removed from the frozen vial and aseptically streaked onto Trypticase Soy Agar (Difco) which were incubated at 35° C. Standardized inocula were prepared using the direct colony suspension method according to CLSI guidelines (Clinical and Laboratory Standards Institute. Methods for dilution antimicrobial susceptibility tests for bacteria that grow aerobically; Approved standard—sixth edition. CLSI document M7-A5, CLSI, Wayne, Pa., 2003). Isolated colonies were selected from an 18-24 hr agar plate and resuspended in 0.9% sterile saline to match a 0.5 McFarland turbidity standard using a calorimeter (Vitek) at 80% of transmitance. The suspension was used within 15 minutes of preparation.
(§4) Mueller-Hinton Broth (MHB) (Difco) was prepared at a 1.1× concentration and supplemented with Ca++ and Mg++ as recommended by CLSI. For each organism, the standardized suspension was diluted 1:180 into appropriate growth medium in a sterile reservoir. After mixing, wells in the drug-containing assay plates were inoculated with a volume of 90 μl. Thus, for each minimum inhibitory concentration (MIC) determination, each well contains a final volume of 100 μl with an inoculum size of approximately 5×10^5 colony forming units (cfu)/ml and no more than 1% DMSO.
(§5) The completed microtiter plates were incubated 20 h at 35° C. in ambient air. Optical density of each well was determined at 600 nm using a VersaMax Microplate reader (Molecular Devices, Sunnyvale, Calif.). The MIC was defined as the lowest drug concentration causing complete suppression of visible bacterial growth.

P. aerug. Hypersuc = experiment: Susceptibility testing (MIC, CLSI microdilution); assay type: cell-based, Pseudomonas aeruginosa; conditions: 20 h at 35° C., Δ efflux, hypersusceptible strain, unit assumed
Protocol: as §1, §2, §3, §4, §5

E. coli tolC = experiment: Susceptibility testing (MIC, CLSI microdilution); assay type: cell-based, Escherichia coli; conditions: 20 h at 35° C., unit assumed
Protocol: as §1, §2, §3, §4, §5

E. coli (2) = experiment: Susceptibility testing (MIC, CLSI microdilution); assay type: cell-based, Escherichia coli; conditions: 20 h at 35° C., in µg/mL (unit assumed)
Protocol: as §1, §2, §3, §4, §5

K. pneu. = experiment: Susceptibility testing (MIC, CLSI microdilution); assay type: cell-based, Klebsiella pneumoniae; conditions: 20 h at 35° C., unit assumed
Protocol: as §1, §2, §3, §4, §5

H. influen. = experiment: Susceptibility testing (MIC, CLSI microdilution); assay type: cell-based, Haemophilus influenzae; conditions: 20 h at 35° C., unit assumed
Protocol: as §1, §2, §3, §4, §5

P. ae LpxC enzyme = P. ae LpxC enzyme (Pseudomonas aeruginosa, UniProt P47205); experiment: Enzyme inhibition testing (fluorescamine assay); assay type: biochemical; conditions: read-out: ENZYME (percent inhibition); for inhibition at 0.1 µg/mL: @0.1 μg/ml; for inhibition at 0.5 µg/mL: @0.5 μg/ml
Chain of P. ae LpxC enzyme (P47205 whole entry): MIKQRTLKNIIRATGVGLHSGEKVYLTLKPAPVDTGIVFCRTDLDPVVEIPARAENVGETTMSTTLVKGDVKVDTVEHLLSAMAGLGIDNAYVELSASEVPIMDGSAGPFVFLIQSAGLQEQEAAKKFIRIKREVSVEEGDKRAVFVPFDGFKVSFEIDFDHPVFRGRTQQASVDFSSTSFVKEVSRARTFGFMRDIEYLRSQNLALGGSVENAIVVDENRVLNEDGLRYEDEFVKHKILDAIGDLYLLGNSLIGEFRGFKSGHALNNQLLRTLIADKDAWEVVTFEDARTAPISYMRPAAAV
Protocol: Compounds were tested based on a published method (Wang W., 2001, Anal Biochem, 290, 338-46) with modifications. Enzyme assays were performed in the assay buffer (50 mM HEPES, pH8, 0.005% Brij, 50 μM ZnSO4, 1 mg/ml BSA) in 96-well V-bottom microtiter plates.
Stock solutions of test compounds and control antibiotics are prepared at 10 mg/ml in DMSO and are diluted in the assay buffer to 6-fold the final testing concentration. 5 μl compound dilution is distributed to the well of the assay plate. EDTA is used as positive control and the final concentration in assay is 12.5 mM.
P. ae LpxC enzyme dilution in the assay buffer is added to the compound in plate and pre-incubated with the compound at room temperature for 10 min. LpxC substrate is added to initiate the enzyme reaction and the final enzyme and substrate concentrations are 1.2 μM and 0.4 mM, respectively. The reaction continues at RT for 4 hrs before diluted with 45 μl of Borate buffer (0.4 M, pH9), followed by addition of 40 μl derivatization reagent (fluorescamine 2 mg/ml DMF). This mixture is incubated at RT for 10 min followed by addition of 150 μl DMF/H2O (1:1). The resulting solution is loaded onto Millipore filter unit (Microcon 10 k MWCO) and spun at 13 k rpm on bench top centrifuge for 15 min. 100 μl of this filtrate is transferred to a low fluorescence clear-bottom 96-well plate (Corning) and the fluorescence is detected at ex360 nm and em465 nm on a Tecan fluorescence plate reader. The percent inhibition is calculated based on EDTA produces 100% inhibition and negative control produces 100% activity.

## CCCc1ccc(-c2ccc(C(=O)NC(CSC)C(=O)NO)cc2)cc1 (stereo in doubt) [Compound 28, (S)-N-(1-(Hydroxyamino)-3-(methylthio)-1-oxopropan-2-yl)-4′-propylbiphenyl-4-carboxamide]
P. aerug. (2)
  MIC P. aerug. (2): >64
P. aerug. Hypersuc
  MIC P. aerug. Hypersuc: > 64 µg/mL
E. coli tolC
  MIC E. coli tolC: 32 µg/mL (≈ 85.9 µM)
E. coli (2)
  MIC E. coli (2): >64
K. pneu.
  MIC K. pneu.: > 64 µg/mL
H. influen.
  MIC H. influen.: > 64 µg/mL
P. ae LpxC enzyme
  inhibition at 0.1 µg/mL: 13%

## CCCc1ccc(-c2ccc(C(=O)N3CC[C@H](NC=O)[C@H]3C(=O)NO)cc2)cc1 [Compound 4, (2S,3S)-3-Formamido-N-hydroxy-1-(4′-propylbiphenylcarbonyl)pyrrolidine-2-carboxamide]
P. aerug. (2)
  MIC P. aerug. (2): >64
P. aerug. Hypersuc
  MIC P. aerug. Hypersuc: 64 µg/mL (≈ 162 µM)
E. coli tolC
  MIC E. coli tolC: 32 µg/mL (≈ 80.9 µM)
E. coli (2)
  MIC E. coli (2): >64
K. pneu.
  MIC K. pneu.: > 64 µg/mL
H. influen.
  MIC H. influen.: > 64 µg/mL
P. ae LpxC enzyme
  inhibition at 0.5 µg/mL: 69%

## CCCc1ccc(-c2ccc(C(=O)N[C@@H](Cn3cccn3)C(=O)NO)cc2)cc1 [Compound 31]
P. aerug. (2)
  MIC P. aerug. (2): >64
P. aerug. Hypersuc
  MIC P. aerug. Hypersuc: 64 µg/mL (≈ 163 µM)
E. coli tolC
  MIC E. coli tolC: 1 µg/mL (≈ 2.55 µM)
E. coli (2)
  MIC E. coli (2): >64
K. pneu.
  MIC K. pneu.: > 64 µg/mL
H. influen.
  MIC H. influen.: > 64 µg/mL
P. ae LpxC enzyme
  inhibition at 0.5 µg/mL: 100%

## CCCc1ccc(-c2ccc(C(=O)N3CSC[C@H]3C(=O)NO)cc2)cc1 [Compound 16]
P. aerug. (2)
  MIC P. aerug. (2): >64
P. aerug. Hypersuc
  MIC P. aerug. Hypersuc: 16 µg/mL (≈ 43.2 µM)
E. coli tolC
  MIC E. coli tolC: 16 µg/mL (≈ 43.2 µM)
E. coli (2)
  MIC E. coli (2): >64
K. pneu.
  MIC K. pneu.: > 64 µg/mL
H. influen.
  MIC H. influen.: > 64 µg/mL
P. ae LpxC enzyme
  inhibition at 0.5 µg/mL: 57%

## O=C(NO)[C@H]1N(C(=O)c2ccc(Oc3ccccc3)cc2)CCS1(=O)=O [Compound 35, (S)-N-Hydroxy-3-(4-phenoxybenzoyl)thiazolidinesulfone-2-carboxamide]
P. aerug. (2)
  MIC P. aerug. (2): >64
P. aerug. Hypersuc
  MIC P. aerug. Hypersuc: > 64 µg/mL
E. coli tolC
  MIC E. coli tolC: 0.125 µg/mL (≈ 0.332 µM)
E. coli (2)
  MIC E. coli (2): >64
K. pneu.
  MIC K. pneu.: > 64 µg/mL
H. influen.
  MIC H. influen.: > 64 µg/mL
P. ae LpxC enzyme
  inhibition at 0.1 µg/mL: 21%

## CCCc1ccc(-c2ccc(C(=O)N3CCS(=O)(=O)[C@H]3C(=O)NO)cc2)cc1 [Compound 15, (S)-N-Hydroxy-3-(4′-propylbiphenylcarbonyl)thiazolidine-sulfone-2-carboxamide]
P. aerug. (2)
  MIC P. aerug. (2): 8
P. aerug. Hypersuc
  MIC P. aerug. Hypersuc: 2 µg/mL (≈ 4.97 µM)
E. coli tolC
  MIC E. coli tolC: 2 µg/mL (≈ 4.97 µM)
E. coli (2)
  MIC E. coli (2): 16
K. pneu.
  MIC K. pneu.: 4 µg/mL (≈ 9.94 µM)
H. influen.
  MIC H. influen.: 32 µg/mL (≈ 79.5 µM)
P. ae LpxC enzyme
  inhibition at 0.1 µg/mL: 41%

## CCOc1ccc(-c2ccc(C(=O)N3CCS(=O)(=O)[C@H]3C(=O)NO)cc2)cc1 [Compound 33, (S)-3-(4′-Ethoxybiphenylcarbonyl)-N-hydroxythiazolidinesulfone-2-carboxamide]
P. aerug. (2)
  MIC P. aerug. (2): 4-16
P. aerug. Hypersuc
  MIC P. aerug. Hypersuc: 2 µg/mL (≈ 4.95 µM)
E. coli tolC
  MIC E. coli tolC: ≤ 0.06 µg/mL
E. coli (2)
  MIC E. coli (2): >64
K. pneu.
  MIC K. pneu.: 32 µg/mL (≈ 79.1 µM)
H. influen.
  MIC H. influen.: 16 µg/mL (≈ 39.6 µM)
P. ae LpxC enzyme
  inhibition at 0.1 µg/mL: 12%

Source: patent publication US8088804B2, “N-hydroxyamide derivatives possessing antibacterial activity” (Pfizer Inc., priority 2005, dated 2012)
